The assay concerns the target T1, PR-A (Homo sapiens, UniProt P06401).
T1 construct: expressed in transfected cells
T1 sequence (P06401 1-769 isoform P06401-2): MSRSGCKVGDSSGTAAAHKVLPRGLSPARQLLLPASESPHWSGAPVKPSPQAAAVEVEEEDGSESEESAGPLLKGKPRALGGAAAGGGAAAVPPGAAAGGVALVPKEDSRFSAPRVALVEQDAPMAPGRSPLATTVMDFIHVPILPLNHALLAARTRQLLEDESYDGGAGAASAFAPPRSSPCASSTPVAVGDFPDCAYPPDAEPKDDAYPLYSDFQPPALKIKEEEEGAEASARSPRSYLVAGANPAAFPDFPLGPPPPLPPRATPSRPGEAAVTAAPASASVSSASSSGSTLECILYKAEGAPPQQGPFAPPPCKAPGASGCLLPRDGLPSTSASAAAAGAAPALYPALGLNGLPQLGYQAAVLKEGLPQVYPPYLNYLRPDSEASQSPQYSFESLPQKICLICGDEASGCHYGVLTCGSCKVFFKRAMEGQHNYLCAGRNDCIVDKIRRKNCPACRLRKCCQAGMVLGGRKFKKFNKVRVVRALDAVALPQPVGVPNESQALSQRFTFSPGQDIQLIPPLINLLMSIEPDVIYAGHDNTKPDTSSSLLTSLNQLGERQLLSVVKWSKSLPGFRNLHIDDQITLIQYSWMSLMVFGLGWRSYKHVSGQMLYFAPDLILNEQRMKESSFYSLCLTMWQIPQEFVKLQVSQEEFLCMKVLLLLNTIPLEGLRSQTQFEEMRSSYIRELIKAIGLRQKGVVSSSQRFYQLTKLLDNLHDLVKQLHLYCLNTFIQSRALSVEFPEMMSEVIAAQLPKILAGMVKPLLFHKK
Description: Transcriptional assay: integrin alpha 6 promoter-luciferase in HeLa cells cotransfected with PR-A. The assay is classed as cell-based. The settings on record: 10 nM progesterone 24 hours.

As for `CC(=O)[C@H]1CC[C@H]2[C@@H]3CCC4=CC(=O)CC[C@]4(C)[C@H]3CC[C@]12C` [progesterone], the “Transcription of the integrin alpha 6 promoter (luciferase)” value was “not regulated at all”.

The values above are taken from patent US6750015B2 (priority 2000, dated 2004).
